The test system of assay [1] is human HTT C allele (SNP rs362331C/T) mRNA in GM09197 fibroblasts. Nature of the assay: HTT mRNA, allele-specific RT-PCR in GM09197 fibroblasts, C allele. The class given is cell-based. Particulars: for GM 09197 E min 48 Hr C Allele (%): lowest % HTT observed at 0.5 nM to 1000 nM compound; for IC50: Homo sapiens, Fibroblast, 48 hr, C allele HTT mRNA normalized to GAPDH, relative to vehicle. As for the experimental part: (§1) Molecular Biology Toolkit: • qPCR primer probe sets: • RNA input normalization was assessed utilizing human glyceraldehyde 3-phosphate dehydrogenase (hGAPDH) TaqMan assay (ThermoFisher cat #4351370) or Human Cyclophillin ([…]) TaqMan assay (ThermoFisher cat #4351372) • Total HTT detection was assessed utilizing human Htt TaqMan assay (ThermoFisher cat #4331182) • Allele-specific detection of human HTT expression in HD cells containing the SNP rs362331C/T (Exon 50): for each assay, allele-specific probes to detect the SNP variant contained locked nucleic acid bases to improve allele discrimination, as compared to unmodified DNA probes. • 362331-F (331 forward primer) • 362331-R (331 reverse primer) • 362331-C probe: TCC CTC ATC+C+AC TGT GT • 362331-T probe: CTC+A+T+C+T+A+C TGT GT • qPCR was performed using Agpath ID one-step reverse transcriptase polymerase chain reaction (RT-PCR) reagent
(§2) Screening of HD molecules methods: GM09197 and/or GM04022 fibroblasts were cultured in T175 flasks incubated at 37° C. and 5% CO2. Once confluency was reached, the media was removed, the cells were washed with 1×PBS, and cells were dissociated using TrypLE™ Express Enzyme. Media was added to the enzyme and collected into a 15-mL conical tube and centrifuged at 500×g for 5 minutes to pellet the cells. Media and enzyme were aspirated using a serological pipette. Cells were resuspended in fresh media and counted using a Countess 3 Automated Cell Counter. Cells were plated at a density of 15,000 cells/well in a tissue culture-treated polystyrene 96-well dish and incubated at 37° C. and 5% CO2 overnight. The next day, media was removed using an 8-channel aspirator. 200 μL media/well are added back into the plate. The molecules are formulated to 1 mM and are dispensed using a Multidrop™ Pico 8 Digital Dispenser. After a 48-hour incubation with compounds, media was removed from plates, cells were washed with 1×PBS, and cells were lysed in 40 μL per well guanidinium thiocyanate buffer. RNA was isolated and purified in […] glass fiber column plates using chaotropic salts. Human mtHTT, wtHTT, and GAPDH mRNA were measured via RT-PCR using the ThermoFisher QuantStudio™ 7 Flex System in 384-well format. Results of HTT levels were normalized to GAPDH mRNA levels. Normalized HTT mRNA levels were expressed relative to vehicle-treated samples to assess fold change after molecule treatment.
(§3) Emin for each compound is the lowest % HTT concentration observed within a compound concentration of 0.5 nM to 1000 nM.

Assay [2] deals with human HTT T allele (SNP rs362331C/T) mRNA in GM09197 fibroblasts. Nature of the assay: HTT mRNA, allele-specific RT-PCR in GM09197 fibroblasts, T allele. It counts as cell-based. Particulars: for IC50: Homo sapiens, Fibroblast, 48 hr, T allele HTT mRNA normalized to GAPDH, relative to vehicle; for Gm09197 Emin 48 hr T Allele (%): lowest % HTT observed at 0.5 nM to 1000 nM compound. As for the experimental part:
as §1, §2, §3

A value given as a limit tells only on which side of the number the result lay.

As usually defined, the IC50 is the point on the concentration scale where inhibition reaches its midpoint. Higher therefore signals a need for much substance. On to `CCS(=O)(=O)Nc1ccc(Oc2ccc(F)cc2F)c(-c2cn(C)c(=O)c3[nH]c(C(=O)Nc4ccc(OCCOCCOCCOCCOCCOCCOCCOCCOCCNC(=O)c5cc(NC(=O)c6nc(NC(=O)[C@H](N)CCNC(=O)c7cc(NC(=O)c8nc(NC(=O)CCNC(=O)c9cc(NC(=O)c%10nccn%10C)cn9C)cn8C)cn7C)cn6C)cn5C)cc4)cc23)c1` [Compound A-21], for which, in assay [1], the “GM 09197 E min 48 Hr C Allele (%)” value was “A (A>90%)” and the concentration for half-maximal inhibition (IC50) was above 1 µM. Also, in assay [2], the IC50 was above 1 µM and the “Gm09197 Emin 48 hr T Allele (%)” value was “A (A>90%)”.
Regarding `CC(=O)Nc1c(F)cc(C(=O)NC2CCC(O)CC2)cc1O[C@@H](C)c1cccc(OCCOCCOCCOCCOCCOCCOCCOCCOCCOCCOCCOCCOCCOCCOCCOCCNC(=O)CCNC(=O)c2nc(NC(=O)c3cc(NC(=O)CCNC(=O)c4nc(NC(=O)CCCNC(=O)c5cc(NC(=O)c6nc(NC(=O)CCNC(=O)c7cc(NC(=O)c8nccn8C)cn7C)cn6C)cn5C)cn4C)cn3C)cn2C)c1` (some centres unmarked) [Compound A-31], the IC50 in assay [1] and in assay [2] was above 1 µM throughout.
As for `CC(=O)Nc1c(F)cc(C(=O)N[C@H]2CC[C@H](O)CC2)cc1O[C@@H](C)c1cccc(C(=O)NCCOCCOCCOCCOCCOCCOCCOCCOCCOCCOCCOCCOCCOCCOCCOCCNC(=O)CCNC(=O)c2nc(NC(=O)c3cc(NC(=O)CCNC(=O)c4nc(NC(=O)CCCNC(=O)c5cc(NC(=O)c6nc(NC(=O)CCNC(=O)c7cc(NC(=O)c8nccn8C)cn7C)cn6C)cn5C)cn4C)cn3C)cn2C)c1` [Compound A-32], the half-inhibitory concentration (IC50) in assay [1] and in assay [2] was above 1 µM throughout.
For the molecule `Cc1sc2c(c1C)C(c1ccc(Cl)cc1)=N[C@@H](CC(=O)Nc1ccc(OCCOCCOCCOCCOCCOCCOCCOCCOCCNC(=O)c3cc(NC(=O)c4nc(NC(=O)[C@H](N)CCNC(=O)c5cc(NC(=O)c6nc(NC(=O)CCNC(=O)c7cc(NC(=O)c8nccn8C)cn7C)cn6C)cn5C)cn4C)cn3C)cc1)c1nnc(C)n1-2` [Compound A-35], the “GM 09197 E min 48 Hr C Allele (%)” value in assay [1] is “A (A>90%)”. Also, the 50% inhibitory concentration (IC50) in assay [1] and in assay [2] was above 1 µM each time.
In the case of `CCS(=O)(=O)Nc1ccc(Oc2ccc(F)cc2F)c(-c2cn(C)c(=O)c3[nH]c(C(=O)Nc4ccc(OCCOCCOCCOCCOCCOCCOCCOCCOCCOCCOCCOCCOCCOCCOCCOCCNC(=O)c5cc(NC(=O)c6nc(NC(=O)[C@H](N)CCNC(=O)c7cc(NC(=O)c8nc(NC(=O)CCNC(=O)c9cc(NC(=O)c%10nccn%10C)cn9C)cn8C)cn7C)cn6C)cn5C)cc4)cc23)c1` [Compound A-36], in assay [1], the “GM 09197 E min 48 Hr C Allele (%)” value is recorded as “A (A>90%)” and the half-inhibitory concentration (IC50) is above 1 µM. In assay [2], the IC50 is above 1 µM and the “Gm09197 Emin 48 hr T Allele (%)” value is reported as “A (A>90%)”.
As to `Cc1sc2c(c1C)C(c1ccc(Cl)cc1)=N[C@@H](CC(=O)Nc1ccc(OCCOCCOCCOCCOCCOCCOCCOCCOCCOCCOCCOCCOCCOCCOCCOCCNC(=O)c3cc(NC(=O)c4nc(NC(=O)c5cc(NC(=O)[C@@H](N)CCNC(=O)c6nc(NC(=O)CCNC(=O)c7cc(NC(=O)c8nccn8C)cn7C)cn6C)cn5C)cn4C)cn3C)cc1)c1nnc(C)n1-2` [Compound A-38], in assay [1], the “GM 09197 E min 48 Hr C Allele (%)” value is given as “A (A>90%)” and the IC50 is above 1 µM. In assay [2], the IC50 was above 1 µM and the “Gm09197 Emin 48 hr T Allele (%)” value is “A (A>90%)”.
With `CCS(=O)(=O)Nc1ccc(Oc2ccc(F)cc2F)c(-c2cn(C)c(=O)c3[nH]c(C(=O)Nc4ccc(OCCOCCOCCOCCOCCOCCOCCOCCOCCNC(=O)c5cc(NC(=O)c6nc(NC(=O)c7cc(NC(=O)[C@@H](N)CCNC(=O)c8nc(NC(=O)CCNC(=O)c9cc(NC(=O)c%10nccn%10C)cn9C)cn8C)cn7C)cn6C)cn5C)cc4)cc23)c1` [Compound A-39], the IC50 in assay [1] and in assay [2] was above 1 µM in each case.
In the case of `CCS(=O)(=O)Nc1ccc(Oc2ccc(F)cc2F)c(-c2cn(C)c(=O)c3[nH]c(C(=O)Nc4ccc(OCCOCCOCCOCCOCCOCCOCCOCCOCCOCCOCCOCCOCCOCCOCCOCCNC(=O)c5cc(NC(=O)c6nc(NC(=O)c7cc(NC(=O)[C@@H](N)CCNC(=O)c8nc(NC(=O)CCNC(=O)c9cc(NC(=O)c%10nccn%10C)cn9C)cn8C)cn7C)cn6C)cn5C)cc4)cc23)c1` [Compound A-40], in assay [1], the “GM 09197 E min 48 Hr C Allele (%)” value is on record as “A (A>90%)” and the concentration for half-maximal inhibition (IC50) is above 1 µM. Moreover, in assay [2], the half-maximal inhibitory concentration (IC50) was above 1 µM and the “Gm09197 Emin 48 hr T Allele (%)” value is “A (A>90%)”.
For `Cc1sc2c(c1C)C(c1ccc(Cl)cc1)=N[C@H](CC(=O)Nc1ccc(OCCOCCOCCOCCOCCOCCOCCOCCOCCOCCOCCOCCOCCOCCOCCOCCNC(=O)CCNC(=O)c3nc(NC(=O)c4cc(NC(=O)CCNC(=O)c5nc(NC(=O)CCCNC(=O)c6cc(NC(=O)c7nc(NC(=O)CCNC(=O)c8cc(NC(=O)c9nccn9C)cn8C)cn7C)cn6C)cn5C)cn4C)cn3C)cc1)c1nnc(C)n1-2` [Compound A-45], in assay [1], the “GM 09197 E min 48 Hr C Allele (%)” value was “C (C<80%)” and the half-inhibitory concentration (IC50) was above 1 µM. Besides, in assay [2], the IC50 is above 1 µM and the “Gm09197 Emin 48 hr T Allele (%)” value is recorded as “C (C<80%)”.
`Cn1cc(NC(=O)c2nc(NC(=O)CCNC(=O)c3cc(NC(=O)c4nccn4C)cn3C)cn2C)cc1C(=O)NCCCC(=O)Nc1cn(C)c(C(=O)NCCC(=O)Nc2cc(C(=O)Nc3cn(C)c(C(=O)NCCC(=O)NCCOCCOCCOCCOCCOCCOCCOCCOCCN4C[C@H](Nc5cnn(C)c(=O)c5Br)C[C@H](c5ccccc5)C4)n3)n(C)c2)n1` [Compound A-48]: in assay [1], the “GM 09197 E min 48 Hr C Allele (%)” value is listed as “A (A>90%)” and the half-maximal inhibitory concentration (IC50) was above 1 µM. In assay [2], the IC50 was above 1 µM and the “Gm09197 Emin 48 hr T Allele (%)” value is reported as “A (A>90%)”.
In the case of `Cn1cc(NC(=O)c2nc(NC(=O)CCNC(=O)c3cc(NC(=O)c4nccn4C)cn3C)cn2C)cc1C(=O)NCCCC(=O)Nc1cn(C)c(C(=O)NCCC(=O)Nc2cc(C(=O)Nc3cn(C)c(C(=O)NCCC(=O)NCCOCCOCCOCCOCCOCCOCCOCCOCCOCCOCCOCCOCCOCCOCCOCCN4C[C@H](Nc5cnn(C)c(=O)c5Br)C[C@H](c5ccccc5)C4)n3)n(C)c2)n1` [Compound A-49], in assay [1], the “GM 09197 E min 48 Hr C Allele (%)” value is given as “A (A>90%)” and the IC50 is above 1 µM. Moreover, in assay [2], the concentration for half-maximal inhibition (IC50) was above 1 µM and the “Gm09197 Emin 48 hr T Allele (%)” value is reported as “A (A>90%)”.
With `Cc1noc(C)c1-c1ccc2c(c1)nc(CCc1ccc(OCCOCCOCCOCCOCCOCCOCCOCCOCCNC(=O)CCNC(=O)c3nc(NC(=O)c4cc(NC(=O)CCNC(=O)c5nc(NC(=O)CCCNC(=O)c6cc(NC(=O)c7nc(NC(=O)CCNC(=O)c8cc(NC(=O)c9nccn9C)cn8C)cn7C)cn6C)cn5C)cn4C)cn3C)c(Cl)c1)n2C[C@H](C)N1CCOCC1` [Compound A-53], in assay [1], the “GM 09197 E min 48 Hr C Allele (%)” value was “A (A>90%)” and the IC50 is above 1 µM. Further, the IC50 in assay [2] was above 1 µM.
In the case of `Cc1noc(C)c1-c1ccc2c(c1)nc(CCc1ccc(OCCOCCOCCOCCOCCOCCOCCOCCOCCOCCOCCOCCOCCOCCOCCOCCNC(=O)CCNC(=O)c3nc(NC(=O)c4cc(NC(=O)CCNC(=O)c5nc(NC(=O)CCCNC(=O)c6cc(NC(=O)c7nc(NC(=O)CCNC(=O)c8cc(NC(=O)c9nccn9C)cn8C)cn7C)cn6C)cn5C)cn4C)cn3C)c(Cl)c1)n2C[C@H](C)N1CCOCC1` [Compound A-54], the IC50 in assay [1] and in assay [2] was above 1 µM throughout.
For `CCNC(=O)c1cc2c(-c3cc(S(C)(=O)=O)ccc3Oc3ccc(OCCOCCOCCOCCOCCNC(=O)CCNC(=O)c4nc(NC(=O)c5cc(NC(=O)CCNC(=O)c6nc(NC(=O)CCCNC(=O)c7cc(NC(=O)c8nc(NC(=O)CCNC(=O)c9cc(NC(=O)c%10nccn%10C)cn9C)cn8C)cn7C)cn6C)cn5C)cn4C)cc3F)cn(C)c(=O)c2[nH]1` [Compound A-55], in assay [1], the “GM 09197 E min 48 Hr C Allele (%)” value is listed as “A (A>90%)” and the IC50 was above 1 µM. Further, in assay [2], the concentration for half-maximal inhibition (IC50) was above 1 µM and the “Gm09197 Emin 48 hr T Allele (%)” value was “A (A>90%)”.
As for `CC(=O)N1c2ccc(-c3ccn(CCOCCOCCOCCOCCOCCOCCOCCOCCOCCOCCOCCOCCOCCOCCOCCNC(=O)CCNC(=O)c4nc(NC(=O)c5cc(NC(=O)CCNC(=O)c6nc(NC(=O)CCCNC(=O)c7cc(NC(=O)c8nc(NC(=O)CCNC(=O)c9cc(NC(=O)c%10nccn%10C)cn9C)cn8C)cn7C)cn6C)cn5C)cn4C)n3)cc2[C@H](Nc2ccc(C#N)cc2)C[C@@H]1C` [Compound A-56], in assay [1], the “GM 09197 E min 48 Hr C Allele (%)” value is given as “C (C<80%)” and the IC50 was above 1 µM. Moreover, in assay [2], the IC50 stood at 0.104 µM and the “Gm09197 Emin 48 hr T Allele (%)” value is reported as “C (C<80%)”.
